From article PMC9578445, “Association of respiratory failure with inhibition of NaV1.6 in the phrenic nerve” (Channels, 2022)
Like-named read-outs stand apart in the source and are kept apart here.

What was measured:
Nav1.6 = Nav1.6 (Homo sapiens, UniProt Q9UQD0); assay: PatchXpress automated patch clamp, hyperpolarized-state protocol; format: cell-based; parameters: expressed in transfected cells; settings: HEK 293 cells, hyperpolarized protocol
Procedure: (§1) Sodium currents were recorded from recombinant Human Embryonic Kidney 293 cell lines stably overexpressing the respective sodium channel type (NaV1.2, 1.5, 1.4, 1.6, 1.7). Recording solutions were comprised of the following (in mM): Internal solution: 30 CsCl, 5 HEPES, 10 EGTA, 120 CsF, 5 NaF, 2 MgCl2, pH = 7.3 with CsOH; External solution 1: 40 NaCl, 120 NMDG, 1 KCl, 0.5 MgCl2, 5 HEPES, 2.7 CaCl2, pH to 7.3 with NaOH, used for NaV1.5 recordings; External solution 2: 150 NaCl, 5 KCl, 2 CaCl2, 1 MgCl2, 10 HEPES, 12 Dextrose, pH 7.3 with NaOH, used for NaV1.7, 1.6, 1.4, and 1.2 recordings.
(§2) Whole-cell currents were recorded from cells stably expressing NaV channels using the PatchXpress 7000A automated patch clamp platform (Molecular Devices, LLC; Sunnyvale, CA). A portable air-conditioning unit was installed on the PatchXpress instruments to maintain the temperature of the headstage at 21°C. Cells were voltage clamped at −60 mV for cell detection and sealing. At the start of each recording, a voltage curve and an inactivation curve was run for each cell to determine the voltage at which 50% of the channels reside in the inactivated state (V0.5 inact). The voltage curve was used to determine if the cell was adequately clamped; cells with currents larger than 10nA or with space clamp issues were not used further.
(§3) NaV1.7, NaV1.6, NaV1.4: Compound potency was measured in a hyperpolarized-state protocol where the holding potential for each cell was set to V0.5inact – 20 mV. A pulse train consisting of 7 consecutive double pulses, 8 second hypepolarizing prepulse to −120 mV followed by a test pulse to −10 mV was applied at a frequency of 0.1 Hz. First, vehicle (0.3% DMSO) was added to establish a baseline measurement. Once baseline was established, test compounds were added. Cells were exposed to compound for 5 minutes at 20 mV negative to V0.5inact then exposed to the same hyperpolarized voltage protocol. (no pulsing during compound incubation). A washout was performed to measure recovery of the sodium currents from inhibition.
(§4) Recordings were included for analysis when current amplitude reached steady-state in vehicle, compound inhibition was concentration-dependent and currents recovered during wash-out periods. Raw data from PatchXpress experiments were retrieved from the database and analyzed using the DataXpress 2 software (Molecular Devices).
(§5) At least 3 concentrations (3–9 replicates per concentration) were tested and at least one concentration had to cause 20–80% current inhibition.

[1] = Plasma exposure in rat CV/R assay; format: in vivo; settings: for concentration at 15 min / concentration at 30 min: CD, plasma, iv
Text: For in vivo CVR and phrenic nerve activity studies, all raw signals were amplified via general purposed biological amplifier (filter settings DC – 3-5 KhZ) then digitized, calibrated and collected at a minimum of 500 Hz (1000 Hz for ECG and 2000 Hz for cardiac electrograms, and 10 KHz for phrenic nerve activity) using Notocord-HEM data acquisition and analysis software. The raw signal was filtered following acquisition with a bandpass filter set to 200–800 Hz). Vehicle (100% dimethylformamdide, DMF) or compound formulated in the vehicle was administered as a 30-minute IV infusion at 0.0167 μL/g body weight/min. […] Exposure in rats was determined in separate pharmacokinetics experiments where compounds were administered via IV dosing.

Human NaV1.4 = target: T1, Human NaV1.4 (Homo sapiens, UniProt P35499); assay: PatchXpress automated patch clamp, hyperpolarized-state protocol; format: cell-based; settings: HEK 293 cells
T1 construct: expressed in transfected cells
Procedure: as §1, §2, §3, §4, §5

Rat NaV1.6 = target: T2, Rat NaV1.6 (Rattus norvegicus, UniProt O88420); assay: as above; format: cell-based; settings: HEK cells, hyperpolarized protocol
T2 construct: expressed in transfected cells; host or cells: HEK cells
T2 sequence (O88420 whole entry): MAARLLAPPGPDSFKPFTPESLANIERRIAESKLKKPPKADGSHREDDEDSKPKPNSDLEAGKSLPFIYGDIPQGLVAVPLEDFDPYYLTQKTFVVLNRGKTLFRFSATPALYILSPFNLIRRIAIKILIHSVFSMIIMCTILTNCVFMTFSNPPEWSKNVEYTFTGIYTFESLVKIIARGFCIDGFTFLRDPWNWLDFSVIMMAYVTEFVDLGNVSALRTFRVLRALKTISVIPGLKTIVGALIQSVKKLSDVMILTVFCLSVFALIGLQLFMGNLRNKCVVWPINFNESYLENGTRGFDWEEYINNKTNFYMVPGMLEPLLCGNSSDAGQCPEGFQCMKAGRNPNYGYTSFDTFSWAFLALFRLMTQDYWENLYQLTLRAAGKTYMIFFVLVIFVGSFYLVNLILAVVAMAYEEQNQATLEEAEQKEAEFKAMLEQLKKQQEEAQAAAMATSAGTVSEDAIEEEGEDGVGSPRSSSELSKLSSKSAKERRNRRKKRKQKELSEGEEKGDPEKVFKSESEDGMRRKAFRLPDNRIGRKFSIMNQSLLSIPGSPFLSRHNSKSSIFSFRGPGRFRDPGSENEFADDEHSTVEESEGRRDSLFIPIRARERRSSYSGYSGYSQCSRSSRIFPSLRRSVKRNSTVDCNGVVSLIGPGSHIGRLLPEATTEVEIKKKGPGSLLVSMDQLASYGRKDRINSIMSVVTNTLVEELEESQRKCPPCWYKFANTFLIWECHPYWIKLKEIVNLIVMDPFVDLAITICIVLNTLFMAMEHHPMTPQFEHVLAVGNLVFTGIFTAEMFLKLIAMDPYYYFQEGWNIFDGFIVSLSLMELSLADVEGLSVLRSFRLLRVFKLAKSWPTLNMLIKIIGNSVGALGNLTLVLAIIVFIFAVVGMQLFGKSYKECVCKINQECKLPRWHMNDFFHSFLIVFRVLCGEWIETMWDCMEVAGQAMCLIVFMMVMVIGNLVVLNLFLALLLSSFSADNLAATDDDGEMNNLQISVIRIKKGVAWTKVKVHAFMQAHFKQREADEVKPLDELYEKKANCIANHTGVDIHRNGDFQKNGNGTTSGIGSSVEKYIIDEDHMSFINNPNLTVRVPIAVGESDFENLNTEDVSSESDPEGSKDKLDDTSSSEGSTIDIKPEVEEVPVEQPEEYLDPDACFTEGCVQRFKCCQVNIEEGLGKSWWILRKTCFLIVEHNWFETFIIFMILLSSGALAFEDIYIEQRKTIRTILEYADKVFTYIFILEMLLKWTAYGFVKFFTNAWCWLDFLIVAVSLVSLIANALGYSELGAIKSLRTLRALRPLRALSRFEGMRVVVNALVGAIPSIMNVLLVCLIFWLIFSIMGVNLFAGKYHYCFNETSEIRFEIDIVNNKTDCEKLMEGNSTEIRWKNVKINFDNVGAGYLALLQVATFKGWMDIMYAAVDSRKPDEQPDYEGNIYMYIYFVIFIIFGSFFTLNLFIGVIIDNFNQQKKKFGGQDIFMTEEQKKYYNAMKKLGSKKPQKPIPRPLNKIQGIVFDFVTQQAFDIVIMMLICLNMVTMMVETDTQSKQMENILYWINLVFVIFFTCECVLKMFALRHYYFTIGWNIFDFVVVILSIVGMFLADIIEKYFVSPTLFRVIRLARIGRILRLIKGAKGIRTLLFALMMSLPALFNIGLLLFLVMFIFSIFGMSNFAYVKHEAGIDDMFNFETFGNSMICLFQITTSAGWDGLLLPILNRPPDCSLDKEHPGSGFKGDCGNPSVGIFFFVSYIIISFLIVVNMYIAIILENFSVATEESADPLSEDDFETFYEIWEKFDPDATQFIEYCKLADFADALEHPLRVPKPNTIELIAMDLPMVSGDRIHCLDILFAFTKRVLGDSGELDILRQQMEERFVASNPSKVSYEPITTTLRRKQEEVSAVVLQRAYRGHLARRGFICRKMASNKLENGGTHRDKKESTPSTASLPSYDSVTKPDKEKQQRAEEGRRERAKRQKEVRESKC
Procedure: as §1, §2, §3, §4, §5

Human NaV1.7 = target: T3, Human NaV1.7 (Homo sapiens, UniProt Q15858); assay: as above; format: cell-based; settings: HEK 293 cells
T3 construct: expressed in transfected cells
Procedure: as §1, §2, §3, §4, §5

Pgp = Pgp (Homo sapiens, UniProt P08183); assay: Permeability BA/AB ratio (Pgp transport); format: in vitro ADME; settings: not told
[2] = test system: anesthetized male CD rats; assay: Rat Cardiovascular/Respiratory (CV/R) assay; format: in vivo; parameters: ∆ QRS Interval: unit not given here; settings: for ∆ Heart Rate / ∆ Mean Arterial Pressure / ∆ respiratory rate / ∆ QRS Interval: rat, IV infusion
Procedure: Male CD Rats were anesthetized with ketamine:xylazine (85 mg/kg:5 mg/kg, im, to effect). The left femoral artery and vein were cannulated for the measurement of blood pressure and the administration of test agent, respectively. The right femoral vein was cannulated for maintenance anesthetic infusion (ketamine:xylazine ~35 mg/kg/hr:1.5 mg/kg/hr, iv, to effect). Needle electrodes were placed subcutaneously at the right axillary and left inguinal areas to record lead II ECGs. When ECG intervals were required to determine effect on cardiac conduction a pacing/recording electrode catheter was advanced through the right jugular vein to pace the heart. ECG intervals were then measured at a fixed cardiac rate of 400 beats/minute to remove any variability of intrinsic heart rate on these parameters.
To determine the test agent-dependent effect on respiratory rate, a tracheotomy was also performed using a short length of polyethylene tubing containing a thermistor (AD Instruments). The change in temperature detected by the thermistor was used to calculate respiratory rate.
For in vivo CVR and phrenic nerve activity studies, all raw signals were amplified via general purposed biological amplifier (filter settings DC – 3-5 KhZ) then digitized, calibrated and collected at a minimum of 500 Hz (1000 Hz for ECG and 2000 Hz for cardiac electrograms, and 10 KHz for phrenic nerve activity) using Notocord-HEM data acquisition and analysis software. The raw signal was filtered following acquisition with a bandpass filter set to 200–800 Hz). Vehicle (100% dimethylformamdide, DMF) or compound formulated in the vehicle was administered as a 30-minute IV infusion at 0.0167 μL/g body weight/min. Doses were selected to achieve unbound plasma concentrations in range of measured Nav1.6 IC50 values when infused at 0.0167uL/g body weight/min based on measured rat clearance, plasma protein binding and Nav1.6 IC50. Exposure in rats was determined in separate pharmacokinetics experiments where compounds were administered via IV dosing.

[3] = rat, 10 mg/kg, rat, IV infusion, 10 mg/kg, read-out: Total [plasma]
[4] = rat, 10 mg/kg, rat, IV infusion, 10 mg/kg, read-out: Unbound [plasma]
[5] = rat, IV infusion, 30 mg/kg, 20–21 min, just prior to death

Sequence of Nav1.6 (Q9UQD0 whole entry): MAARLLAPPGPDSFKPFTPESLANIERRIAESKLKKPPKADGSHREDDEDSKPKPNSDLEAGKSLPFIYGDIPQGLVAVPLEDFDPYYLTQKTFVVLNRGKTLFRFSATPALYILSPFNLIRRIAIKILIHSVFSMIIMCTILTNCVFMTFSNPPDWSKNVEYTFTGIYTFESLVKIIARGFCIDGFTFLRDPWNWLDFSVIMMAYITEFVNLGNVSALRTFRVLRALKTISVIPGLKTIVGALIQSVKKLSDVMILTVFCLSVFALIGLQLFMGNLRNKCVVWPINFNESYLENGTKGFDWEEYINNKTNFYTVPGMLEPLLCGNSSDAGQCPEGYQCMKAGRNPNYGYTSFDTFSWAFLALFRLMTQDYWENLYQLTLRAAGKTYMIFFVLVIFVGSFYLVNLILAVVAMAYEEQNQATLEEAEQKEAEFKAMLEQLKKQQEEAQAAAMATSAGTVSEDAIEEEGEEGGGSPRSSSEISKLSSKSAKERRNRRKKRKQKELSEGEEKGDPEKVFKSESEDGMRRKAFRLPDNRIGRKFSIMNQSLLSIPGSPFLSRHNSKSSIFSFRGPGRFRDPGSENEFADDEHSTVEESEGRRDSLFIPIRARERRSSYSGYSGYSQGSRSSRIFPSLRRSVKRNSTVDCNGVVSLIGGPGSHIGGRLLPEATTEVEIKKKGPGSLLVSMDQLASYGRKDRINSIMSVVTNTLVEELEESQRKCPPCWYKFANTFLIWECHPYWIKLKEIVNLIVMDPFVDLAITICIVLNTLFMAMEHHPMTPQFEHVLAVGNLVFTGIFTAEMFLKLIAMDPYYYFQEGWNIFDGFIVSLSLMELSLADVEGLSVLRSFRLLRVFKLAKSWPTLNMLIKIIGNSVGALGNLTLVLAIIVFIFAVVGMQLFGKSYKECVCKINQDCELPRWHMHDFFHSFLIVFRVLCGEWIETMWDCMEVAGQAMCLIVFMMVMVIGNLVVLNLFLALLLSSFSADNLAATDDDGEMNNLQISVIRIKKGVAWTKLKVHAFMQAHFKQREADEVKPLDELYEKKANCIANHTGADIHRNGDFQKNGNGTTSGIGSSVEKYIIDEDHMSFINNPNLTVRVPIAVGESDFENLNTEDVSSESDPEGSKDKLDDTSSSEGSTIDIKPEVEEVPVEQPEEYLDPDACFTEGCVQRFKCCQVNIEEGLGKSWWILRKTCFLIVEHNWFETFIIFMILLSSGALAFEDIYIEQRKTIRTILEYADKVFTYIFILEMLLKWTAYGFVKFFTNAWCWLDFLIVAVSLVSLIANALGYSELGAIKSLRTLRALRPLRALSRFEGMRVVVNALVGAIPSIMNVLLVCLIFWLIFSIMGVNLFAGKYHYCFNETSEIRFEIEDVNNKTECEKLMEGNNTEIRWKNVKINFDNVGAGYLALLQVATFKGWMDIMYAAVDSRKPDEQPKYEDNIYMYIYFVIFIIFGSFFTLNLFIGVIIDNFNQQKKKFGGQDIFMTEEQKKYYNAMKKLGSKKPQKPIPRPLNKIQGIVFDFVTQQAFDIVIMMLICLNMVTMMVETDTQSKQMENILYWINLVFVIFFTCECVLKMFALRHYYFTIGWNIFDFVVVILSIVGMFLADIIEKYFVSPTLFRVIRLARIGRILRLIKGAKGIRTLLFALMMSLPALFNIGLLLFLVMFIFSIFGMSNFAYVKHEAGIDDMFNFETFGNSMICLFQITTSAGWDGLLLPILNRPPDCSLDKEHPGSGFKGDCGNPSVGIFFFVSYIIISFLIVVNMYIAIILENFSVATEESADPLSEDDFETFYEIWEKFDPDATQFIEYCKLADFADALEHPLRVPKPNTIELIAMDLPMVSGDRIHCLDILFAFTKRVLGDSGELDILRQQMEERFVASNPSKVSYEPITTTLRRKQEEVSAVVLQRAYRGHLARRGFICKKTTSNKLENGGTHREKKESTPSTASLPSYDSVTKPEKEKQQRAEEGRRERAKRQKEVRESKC

`C[C@H](c1cccc2c1CNCC2)n1c(=O)oc2cc(S(=O)(=O)Nc3ncns3)ccc21` [SSCI-3] showed an IC50 (Nav1.6) of 1.11 µM, a concentration at 15 min [1, 3] of 32.1 ± 2 µM and a concentration at 15 min [1, 4] of 3.8 ± 0.2 µM. For the same molecule, the concentration at 30 min [1, 3] was 43.5 ± 1.8 µM, the concentration at 30 min [1, 4] was 5.1 ± 0.2 µM and the concentration at 15 min ([1]; male, rat, 30 mg/kg, rat, IV infusion, 30 mg/kg, read-out: Total [plasma]) was 108 ± 4.1 µM. The concentration at 15 min ([1]; male, rat, 30 mg/kg, rat, IV infusion, 30 mg/kg, read-out: Unbound [plasma]) was 12.7 ± 0.5 µM, the “unbound plasma concentration just prior to death” value ([1]; rat CV/R assay, blood samples taken just prior to death) was 20.2 µM and the “Total [plasma]” value [1, 5] was 171.2 ± 10.2a μM. The “Unbound [plasma]” value [1, 5] was 20.2 ± 1.2a μM, the IC50 (Human NaV1.4) was greater than 30 µM and the IC50 (Rat NaV1.6) was 8.1 µM. The IC50 (Human NaV1.7) was 1 µM, the efflux ratio (Pgp) was roughly 1.03 and the mortality ([2]; rat CV/R assay, IV, 10 mg/kg) was “No mortality”. For the same molecule, the time of mortality ([2]; rat CV/R assay, IV, 30 mg/kg) was 20 to 21 min, the “∆ Heart Rate” value ([2]; 10 mg/kg, 15 min) was 3.0 ± 0.7 bpm and the “∆ Mean Arterial Pressure” value ([2]; 10 mg/kg, 15 min) was 12.9 ± 2.1 mmHg. The “∆ respiratory rate” value ([2]; 10 mg/kg, 15 min) was −8.5 ± 1.8%, the “∆ Heart Rate” value ([2]; 10 mg/kg, 30 min) was 5.0 ± 1.9 bpm and the “∆ Mean Arterial Pressure” value ([2]; 10 mg/kg, 30 min) was 6.8 ± 8.7 mmHg. The “∆ QRS Interval” value ([2]; 10 mg/kg, 30 min) was 0.5 ± 0.2, the “∆ respiratory rate” value ([2]; 10 mg/kg, 30 min) was −3.2 ± 1.8% and the “∆ respiratory rate” value ([2]; 30 mg/kg, 20–21 min) was −100%. For the same molecule, the “∆ Heart Rate” value ([2]; 30 mg/kg, 15 min) was 5.6 ± 1.7 bpm, the “∆ Mean Arterial Pressure” value ([2]; 30 mg/kg, 15 min) was 13.8 ± 0.7 mmHg and the “∆ QRS Interval” value ([2]; 30 mg/kg, 15 min) was 0.3 + 0.4. For the same molecule, the “∆ respiratory rate” value ([2]; 30 mg/kg, 15 min) was −6.2 ± 5.4%.
